The values below come from patent publication US20120053053A1, “PYRIMIDINE DERIVATIVES AND THEIR USE AS HERBICIDES” (SYNGENTA CROP PROTECTION, LLC, priority 2009, published 2012).

Common to all, as to assay type: in vivo
The test system of assay [1] is Ipomea hederaceae (IPOHE). The experiment in a line: Post-emergence biological efficacy (percentage damage). Particulars: dose 1,000 g/ha, evaluated after 13 days, 100=total damage, 0=no damage; for pest or weed control at 1000 g/ha: Ipomoea hederacea, 312 h. How it is done:
(§1) Seeds of Alopecurus myosuroides (ALOMY), Setaria faberi (SETFA), Echinochloa crus-galli (ECHCG), Solanum nigrum (SOLNI), Amaranthus retoflexus (AMARE) and Ipomea hederaceae (IPOHE) were sown in standard soil in pots. After cultivation for 8 days under controlled conditions in a glasshouse (at 24/16° C., day/night; 14 hours light; 65% humidity), the plants were sprayed with an aqueous spray solution derived from the formulation of the technical active ingredient in acetone/water (50:50) solution containing 0.5% Tween 20 (polyoxyethylene sorbitan monolaurate, CAS RN 9005-64-5) to give a final dose of 250 or 1000 g/ha of test compound. The test plants were then grown on under controlled conditions in a glasshouse (at 24/16° C., day/night; 14 hours light; 65% humidity) and watered twice daily. After 13 days the test was evaluated (100=total damage to plant; 0=no damage to plant).

Assay [2] deals with Setaria faberi (SETFA). The assay is described as above. To be noted: dose 1,000 g/ha, evaluated after 13 days, 100=total damage, 0=no damage; for pest or weed control at 1000 g/ha: Setaria faberi, 312 h. On the procedure:
as §1

For assay [3], the system named is Echinochloa crus-galli (ECHCG). Described as above. Particulars: dose 1,000 g/ha, evaluated after 13 days, 100=total damage, 0=no damage; for pest or weed control at 1000 g/ha: Echinochloa crus-galli, 312 h. How it is done:
as §1

Assay [4] deals with Solanum nigrum (SOLNI). The description is as above. To be noted: dose 1,000 g/ha, evaluated after 13 days, 100=total damage, 0=no damage; for pest or weed control at 1000 g/ha: Solanum nigrum, 312 h. On the procedure:
as §1

Assay [5] has as its system Alopecurus myosuroides (ALOMY). The assay is described as above. To be noted: dose 1,000 g/ha, evaluated after 13 days, 100=total damage, 0=no damage; for pest or weed control at 1000 g/ha: Alopecurus myosuroides, 312 h. How it is done:
as §1

Assay [6] has as its system Amaranthus retoflexus (AMARE). The description is as above. To be noted: dose 1,000 g/ha, evaluated after 13 days, 100=total damage, 0=no damage; for pest or weed control at 1000 g/ha: Amaranthus retroflexus, 312 h. How it is done: as §1
For assay [7], the system named is Ipomea hederaceae (IPOHE). The experiment in a line: Pre-emergence biological efficacy (percentage damage). Particulars: dose 1,000 g/ha, evaluated after 13 days, 100=total damage, 0=no damage; for pest or weed control at 1000 g/ha: Ipomoea hederacea, 312 h. How it is done: (§2) Seeds of Alopecurus myosuroides (ALOMY), Setaria faberi (SETFA), Echinochloa crus-galli (ECHCG), Solanum nigrum (SOLNI), Amaranthus retoflexus (AMARE) and Ipomea hederaceae (IPOHE) were sown in standard soil in pots. After cultivation for one day under controlled conditions in a glasshouse (at 24/16° C., day/night; 14 hours light; 65% humidity), the plants were sprayed with an aqueous spray solution derived from the formulation of the technical active ingredient in acetone/water (50:50) solution containing 0.5% Tween 20 (polyoxyethylene sorbitan monolaurate, CAS RN 9005-64-5) to give a final dose of 250 or 1000 g/ha of test compound. The test plants were then grown under controlled conditions in the glasshouse (at 24/16° C., day/night; 14 hours light; 65% humidity) and watered twice daily. After 13 days the test was evaluated (100=total damage to plant; 0=no damage to plant).

Assay [8] concerns Setaria faberi (SETFA). Described as above. Particulars: dose 1,000 g/ha, evaluated after 13 days, 100=total damage, 0=no damage; for pest or weed control at 1000 g/ha: Setaria faberi, 312 h. On the procedure: as §2
For assay [9], the system named is Echinochloa crus-galli (ECHCG). Described as above. Particulars: dose 1,000 g/ha, evaluated after 13 days, 100=total damage, 0=no damage; for pest or weed control at 1000 g/ha: Echinochloa crus-galli, 312 h. On the procedure:
as §2

Assay [10] relates to Solanum nigrum (SOLNI). Described as above. Particulars: dose 1,000 g/ha, evaluated after 13 days, 100=total damage, 0=no damage; for pest or weed control at 1000 g/ha: Solanum nigrum, 312 h. How it is done:
as §2

Assay [11] deals with Alopecurus myosuroides (ALOMY). The description is as above. Particulars: dose 1,000 g/ha, evaluated after 13 days, 100=total damage, 0=no damage; for pest or weed control at 1000 g/ha: Alopecurus myosuroides, 312 h. On the procedure: as §2
The subject of assay [12] is Amaranthus retoflexus (AMARE). The description is as above. To be noted: dose 1,000 g/ha, evaluated after 13 days, 100=total damage, 0=no damage; for pest or weed control at 1000 g/ha: Amaranthus retroflexus, 312 h. How it is done:
as §2

With `C/C=C/c1c(N)nc(-c2ccc(Cl)c(OC)c2F)nc1C(=O)OC` [27-62 (E)], the “Percentage damage IPOHE, post-emergence” value in assay [1] stood at 90%. Besides, the “Percentage damage SETFA, post-emergence” value with Setaria faberi (SETFA) [2] worked out at 100%. For the same compound, the “Percentage damage ECHCG, post-emergence” value in assay [3] came to 100%. The “Percentage damage SOLNI, post-emergence” value with Solanum nigrum (SOLNI) [4] was 100%. In assay [5], the “Percentage damage ALOMY, post-emergence” value came to 90%. In assay [6], the “Percentage damage AMARE, post-emergence” value was 100%. Further, the “Percentage damage IPOHE, pre-emergence” value in assay [7] is 90%. In the assay with Setaria faberi (SETFA) [8], the “Percentage damage SETFA, pre-emergence” value is reported as 80%. Moreover, in assay [9], the “Percentage damage ECHCG, pre-emergence” value is reported as 90%. Further, the “Percentage damage SOLNI, pre-emergence” value in the assay with Solanum nigrum (SOLNI) [10] was 80%. Moreover, in assay [11], the “Percentage damage ALOMY, pre-emergence” value amounted to 90%. In assay [12], the “Percentage damage AMARE, pre-emergence” value turned out to be 50%.

Turning to `COC(=O)c1nc(-c2ccc(C(C)=O)c(OC)c2F)nc(N)c1C(C)=O` [Compound 65-53, 4-Amino-2-(2-fluoro-3-methoxy-4-methylcarbonyl-phenyl)-6-methoxycarbonyl-5-methylcarbonyl-pyrimidine], the pest or weed control – broadly, how far the test organism was held down – at 1000 g/ha stood at 50% in assay [1]; 10% in the assay on Setaria faberi (SETFA) [2]; 10% in [3]; 70% in the assay on Solanum nigrum (SOLNI) [4]; 0% in [5]; 20% in assay [6]. The pest or weed control at 1000 g/ha was 20% in [7]; 0% in the assay with Setaria faberi (SETFA) [8]; 0% in [9]; 0% with Solanum nigrum (SOLNI) [10]; 0% in assay [11]; 0% in assay [12].

In the case of `COC(=O)c1nc(C2CC2)nc(N)c1C=C(C)C` [Compound 2-69, 4-Amino-2-cyclopropyl-6-methoxycarbonyl-5-(2-methylprop-1-enyl)-pyrimidine], the pest or weed control at 1000 g/ha in [1] worked out at 70%; with Setaria faberi (SETFA) [2], 10%; in [3] it was 0%; in the assay with Solanum nigrum (SOLNI) [4] it was 80%; in assay [5], 10%; in assay [6], 20%. The pest or weed control at 1000 g/ha in [7] was determined as 70%; in the assay with Setaria faberi (SETFA) [8], 0%; in assay [9], 0%; in the assay with Solanum nigrum (SOLNI) [10], 90%; in assay [11], 10%; in assay [12], 100%.

As to `C/C=C/c1c(N)nc(C2CC2)nc1C(=O)OC` [2-62 (E)], the “Percentage damage IPOHE, post-emergence” value in assay [1] is recorded as 50%. Moreover, the “Percentage damage SETFA, post-emergence” value with Setaria faberi (SETFA) [2] was 20%. Besides, in [3], the “Percentage damage ECHCG, post-emergence” value was determined as 10%. In addition, the “Percentage damage SOLNI, post-emergence” value in the assay on Solanum nigrum (SOLNI) [4] turned out to be 70%. Also, the “Percentage damage ALOMY, post-emergence” value in assay [5] is on record as 10%. In [6], the “Percentage damage AMARE, post-emergence” value is reported as 40%. In addition, the “Percentage damage IPOHE, pre-emergence” value in [7] came out at 30%. In addition, the “Percentage damage SETFA, pre-emergence” value with Setaria faberi (SETFA) [8] is 0%. The “Percentage damage ECHCG, pre-emergence” value in assay [9] is on record as 10%. Moreover, the “Percentage damage SOLNI, pre-emergence” value in the assay with Solanum nigrum (SOLNI) [10] was 70%. Besides, the “Percentage damage ALOMY, pre-emergence” value in assay [11] stood at 10%. The “Percentage damage AMARE, pre-emergence” value in assay [12] is on record as 40%.

Take `COC(=O)COc1nc(C2CC2)nc(Cl)c1C` [Compound 2-376, 4-chloro-2-cyclopropyl-6-methoxycarbonylmethoxy-5-methylpyrimidine]: the pest or weed control at 1000 g/ha in assay [1] was 50%; in the assay with Setaria faberi (SETFA) [2], 20%; in assay [3], 0%; in the assay on Solanum nigrum (SOLNI) [4] it was 30%; in [5], 0%; in assay [6], 20%. Besides, the pest or weed control at 1000 g/ha in [7] is 0%; in the assay with Setaria faberi (SETFA) [8], 0%; in [9], 0%; in the assay with Solanum nigrum (SOLNI) [10], 0%; in assay [11] it was 0%; in assay [12], 30%.

As to `C=Cc1c(N)nc(-c2cc(F)cc(Cl)c2)nc1C(=O)OC` [Compound 61-61, 4-Amino-2-(3-chloro-5-fluorophenyl)-5-ethenyl-6-methoxycarbonyl-pyrimidine], the pest or weed control at 1000 g/ha in [1] was determined as 0%; in the assay with Setaria faberi (SETFA) [2], 0%; in [3], 0%; in the assay with Solanum nigrum (SOLNI) [4], 20%; in [5], 0%; in assay [6], 10%. In addition, the pest or weed control at 1000 g/ha in [7] turned out to be 0%; in the assay on Setaria faberi (SETFA) [8], 0%; in assay [9] it was 0%; in the assay with Solanum nigrum (SOLNI) [10], 30%; in [11] it was 0%; in [12], 0%.

Regarding `C=Cc1c(N)nc(-c2ccc(F)c(C(F)(F)F)c2)nc1C(=O)OC` [Compound 43-61, 4-Amino-5-ethenyl-2-(4-fluoro-3-trifluoromethyl-phenyl)-6-methoxycarbonyl-pyrimidine], the pest or weed control at 1000 g/ha in assay [1] amounted to 10%; in the assay with Setaria faberi (SETFA) [2], 20%; in assay [3] it was 30%; with Solanum nigrum (SOLNI) [4] it was 70%; in assay [5] it was 30%; in [6], 20%. Moreover, the pest or weed control at 1000 g/ha in assay [7] was determined as 10%; in the assay on Setaria faberi (SETFA) [8], 50%; in assay [9], 70%; in the assay with Solanum nigrum (SOLNI) [10] it was 70%; in [11] it was 30%; in assay [12], 60%.

On to `C=Cc1c(N)nc(-c2ccc(Cl)c(N(C)C)c2F)nc1C(=O)OC(C)c1ccccc1` (stereo not drawn) [Compound 33-394, 4-Amino-2-(4-chloro-3-dimethylamino-2-fluorophenyl)-5-ethenyl-6-(1-phenyl-ethoxy)carbonyl-pyrimidine], for which the pest or weed control at 1000 g/ha in assay [1] was 30%; with Setaria faberi (SETFA) [2] it was 50%; in [3], 60%; in the assay on Solanum nigrum (SOLNI) [4] it was 80%; in [5], 30%; in assay [6], 100%. Besides, the pest or weed control at 1000 g/ha in assay [7] is 0%; in the assay with Setaria faberi (SETFA) [8], 30%; in assay [9], 30%; in the assay on Solanum nigrum (SOLNI) [10] it was 40%; in [11], 20%; in [12], 40%.

Consider `C=Cc1c(N)nc(-c2ccc(F)c(C)c2)nc1C(=O)OC` [Compound 45-61, 4-Amino-5-ethenyl-2-(4-fluoro-3-methylphenyl)-6-methoxycarbonyl-pyrimidine], for which the pest or weed control at 1000 g/ha in assay [1] was found to be 30%; with Setaria faberi (SETFA) [2], 50%; in [3], 40%; in the assay with Solanum nigrum (SOLNI) [4], 70%; in assay [5], 50%; in [6], 100%. In addition, the pest or weed control at 1000 g/ha in [7] was 0%; in the assay with Setaria faberi (SETFA) [8] it was 50%; in assay [9], 40%; with Solanum nigrum (SOLNI) [10], 40%; in assay [11], 50%; in [12], 100%.
